Measurements published in ChEMBL document CHEMBL3997829, “Discovery of novel substituted octahydropyrrolo[3,4-c]pyrroles as dual orexin receptor antagonists for insomnia treatment” (Bioorg Med Chem Lett, 2017).
pIC50: −log10 of the molar value.

Columns and labels:
[1] = target: T1, Orexin/Hypocretin receptor type 1 (Homo sapiens, UniProt O43613); experiment: Antagonist activity at human orexin 1 receptor expressed in HEK293 cells assessed as inhibition of orexin-induced calcium mobilization after 60 mins by FLIPR assay; assay type: functional, cell-based
T1 sequence (O43613 whole entry): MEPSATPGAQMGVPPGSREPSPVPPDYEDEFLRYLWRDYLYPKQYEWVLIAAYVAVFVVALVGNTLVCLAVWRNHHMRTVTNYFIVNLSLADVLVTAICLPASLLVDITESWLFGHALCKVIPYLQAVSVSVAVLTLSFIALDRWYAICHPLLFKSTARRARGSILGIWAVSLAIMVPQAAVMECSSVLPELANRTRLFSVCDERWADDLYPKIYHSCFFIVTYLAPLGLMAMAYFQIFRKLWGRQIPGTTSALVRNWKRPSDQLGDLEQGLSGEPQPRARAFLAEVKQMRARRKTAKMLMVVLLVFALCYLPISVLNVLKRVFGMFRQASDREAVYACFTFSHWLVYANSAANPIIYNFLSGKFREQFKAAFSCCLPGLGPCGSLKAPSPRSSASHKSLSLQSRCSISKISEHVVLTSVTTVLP

Orexin receptor type 2 = target: T2, Orexin receptor type 2 (Homo sapiens, UniProt O43614); experiment: Antagonist activity at human orexin 2 receptor expressed in HEK293 cells assessed as inhibition of orexin-induced calcium mobilization after 60 mins by FLIPR assay; assay type: functional, cell-based
T2 sequence (O43614 whole entry): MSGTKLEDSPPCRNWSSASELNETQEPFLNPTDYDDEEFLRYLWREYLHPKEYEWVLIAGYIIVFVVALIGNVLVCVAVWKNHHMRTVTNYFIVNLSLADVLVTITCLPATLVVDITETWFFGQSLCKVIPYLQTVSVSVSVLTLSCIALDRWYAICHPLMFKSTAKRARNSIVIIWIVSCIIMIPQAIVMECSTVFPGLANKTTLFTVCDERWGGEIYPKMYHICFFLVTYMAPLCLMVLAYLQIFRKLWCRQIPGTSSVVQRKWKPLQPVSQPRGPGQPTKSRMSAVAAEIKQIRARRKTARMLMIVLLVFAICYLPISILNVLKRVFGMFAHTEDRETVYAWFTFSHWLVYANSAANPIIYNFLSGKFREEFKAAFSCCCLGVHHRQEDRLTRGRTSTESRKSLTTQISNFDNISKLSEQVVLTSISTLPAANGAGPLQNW

[2] = target: Voltage-gated inwardly rectifying potassium channel KCNH2 (Homo sapiens, UniProt Q12809); experiment: Inhibition of human ERG
Voltage-gated inwardly rectifying potassium channel KCNH2, sequence (Q12809 whole entry): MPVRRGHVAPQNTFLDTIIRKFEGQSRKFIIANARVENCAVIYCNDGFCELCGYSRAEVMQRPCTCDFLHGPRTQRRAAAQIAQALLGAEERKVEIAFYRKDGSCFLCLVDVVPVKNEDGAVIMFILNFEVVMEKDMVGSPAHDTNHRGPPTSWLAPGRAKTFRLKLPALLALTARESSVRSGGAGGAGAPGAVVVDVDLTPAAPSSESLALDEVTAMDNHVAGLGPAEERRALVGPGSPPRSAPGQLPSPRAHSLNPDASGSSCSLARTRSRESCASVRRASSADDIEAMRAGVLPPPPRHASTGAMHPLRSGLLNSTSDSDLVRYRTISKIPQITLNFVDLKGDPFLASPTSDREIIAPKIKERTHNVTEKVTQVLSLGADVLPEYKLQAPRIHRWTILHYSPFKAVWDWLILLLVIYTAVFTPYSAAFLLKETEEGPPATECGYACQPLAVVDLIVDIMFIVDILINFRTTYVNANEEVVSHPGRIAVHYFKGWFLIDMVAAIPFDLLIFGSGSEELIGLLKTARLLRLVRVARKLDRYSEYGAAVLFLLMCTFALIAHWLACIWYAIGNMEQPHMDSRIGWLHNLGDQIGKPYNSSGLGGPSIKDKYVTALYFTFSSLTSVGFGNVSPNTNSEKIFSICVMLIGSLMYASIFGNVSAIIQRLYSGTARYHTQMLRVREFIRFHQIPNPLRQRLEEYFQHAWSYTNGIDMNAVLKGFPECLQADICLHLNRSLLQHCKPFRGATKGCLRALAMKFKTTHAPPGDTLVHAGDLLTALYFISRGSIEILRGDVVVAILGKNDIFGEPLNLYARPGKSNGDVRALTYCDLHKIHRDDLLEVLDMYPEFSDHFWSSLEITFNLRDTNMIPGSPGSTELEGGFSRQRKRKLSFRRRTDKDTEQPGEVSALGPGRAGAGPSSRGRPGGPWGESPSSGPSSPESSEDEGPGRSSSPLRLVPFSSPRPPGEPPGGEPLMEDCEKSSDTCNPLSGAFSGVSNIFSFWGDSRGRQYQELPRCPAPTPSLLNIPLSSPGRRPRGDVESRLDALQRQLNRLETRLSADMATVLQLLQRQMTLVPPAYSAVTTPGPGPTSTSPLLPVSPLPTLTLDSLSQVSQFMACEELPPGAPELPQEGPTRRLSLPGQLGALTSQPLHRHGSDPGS

Rattus norvegicus [3] = experiment: Sleep promoting activity in Sprague-Dawley rat assessed as decrease in active wake time at 90 mg/kg, po measured over 2 hrs by electroencephalogram method; assay type: functional
Rattus norvegicus [4] = experiment: Sleep promoting activity in Sprague-Dawley rat assessed as effect on rapid eye movement sleep time at 90 mg/kg, po measured over 2 hrs by electroencephalogram method; assay type: functional
Rattus norvegicus [5] = experiment: Sleep promoting activity in Sprague-Dawley rat assessed as increase in slow wave sleep time at 90 mg/kg, po measured over 2 hrs by electroencephalogram method; assay type: functional

O=C(c1cc(F)ccc1-n1nccn1)N1C[C@@H]2CN(c3nc4cc(Cl)ccc4o3)C[C@@H]2C1
pIC50 [1]: 5.71
pIC50 (Orexin receptor type 2): 6.10

Cc1ccc(-n2nccn2)c(C(=O)N2C[C@@H]3CN(c4nc5cc(C)ccc5o4)C[C@@H]3C2)c1
pIC50 [1]: 6.95
pIC50 (Orexin receptor type 2): 6.68

Cc1ccc(-n2nccn2)c(C(=O)N2CC3CN(c4nc5cc(Cl)ccc5o4)CC3(C)C2)c1 (configuration not stated)
pIC50 [1]: 6.13
pIC50 (Orexin receptor type 2): 5.96

Cc1ccc(-n2nccn2)c(C(=O)N2C[C@@H]3CN(c4nc5cc(OC(F)(F)F)ccc5o4)C[C@@H]3C2)c1
pIC50 [1]: 5.41
pIC50 (Orexin receptor type 2): 5.33

Cc1ccc(-n2nccn2)c(C(=O)N2CC3CCN(c4nc5cc(Cl)ccc5o4)C3C2)c1 (configuration not stated)
pIC50 [1]: < 5.00
pIC50 (Orexin receptor type 2): < 5.00

O=C(c1ccccc1-n1nccn1)N1C[C@@H]2CN(c3nc4cc(Cl)ccc4o3)C[C@@H]2C1
pIC50 [1]: 6.31
pIC50 (Orexin receptor type 2): 6.62

Cc1ccc(-n2nccn2)c(C(=O)N2C[C@@]3(C)CN(c4nc5cc(Cl)ccc5o4)C[C@@]3(C)C2)c1
pIC50 [1]: 5.72
pIC50 (Orexin receptor type 2): 5.22

O=C(c1cc(C(F)(F)F)ccc1-n1nccn1)N1C[C@@H]2CN(c3nc4cc(Cl)ccc4o3)C[C@@H]2C1
pIC50 [1]: 5.30
pIC50 (Orexin receptor type 2): 5.98

Cc1ccc(-n2nccn2)c(C(=O)N2CC3CCCN(c4nc5cc(Cl)ccc5o4)C3C2)c1 (configuration not stated)
pIC50 [1]: < 5.00
pIC50 (Orexin receptor type 2): < 5.00

Cc1ccc(-n2nccn2)c(C(=O)N2C[C@@H]3CN(c4ncnc5ccccc45)C[C@@H]3C2)c1
pIC50 [1]: < 5.00
pIC50 (Orexin receptor type 2): 5.77

Cc1ccc(-n2nccn2)c(C(=O)N2C[C@@]3(F)CN(c4nc5ccccc5o4)C[C@@]3(F)C2)c1
pIC50 [1]: 6.04
pIC50 (Orexin receptor type 2): 6.24
pIC50 [2]: < 4.52

Cc1ccc(-n2nccn2)c(C(=O)N2CCN(c3nc4cc(Cl)ccc4o3)CC[C@H]2C)c1 [SUVOREXANT]
Time (Rattus norvegicus [3]): 46.9 min
Time (Rattus norvegicus [4]): 13.6 min
Time (Rattus norvegicus [5]): 33.5 min

Cc1ccc(-n2nccn2)c(C(=O)N2C[C@@H]3CN(c4nc5cc(Cl)ccc5s4)C[C@@H]3C2)c1
pIC50 [1]: 6.49
pIC50 (Orexin receptor type 2): 5.93

Cc1ccc(-n2nccn2)c(C(=O)N2C[C@@H]3CN(c4nc5ccccc5n4C)C[C@@H]3C2)c1
pIC50 [1]: 5.79
pIC50 (Orexin receptor type 2): 6.11

Cc1ccc(-n2nccn2)c(C(=O)N2C[C@@H]3CN(c4nc(-c5cccc(Cl)c5)co4)C[C@@H]3C2)c1
pIC50 [1]: 6.00
pIC50 (Orexin receptor type 2): 5.55
